Assay results from ChEMBL document CHEMBL5257075, “Design, synthesis and biological evaluation of quinazoline SOS1 inhibitors” (Bioorg Med Chem Lett, 2023).

Assays:
K562 = experiment: Antiproliferative activity against human K562 cells assessed as inhibition of cell proliferation; type: functional, cell-based
[1] = molecular target: T1, Son of sevenless homolog 1 (Homo sapiens) (UniProt Q07889); experiment: Inhibition of SOS1 (unknown origin) at 500 nM
T1 sequence (whole entry): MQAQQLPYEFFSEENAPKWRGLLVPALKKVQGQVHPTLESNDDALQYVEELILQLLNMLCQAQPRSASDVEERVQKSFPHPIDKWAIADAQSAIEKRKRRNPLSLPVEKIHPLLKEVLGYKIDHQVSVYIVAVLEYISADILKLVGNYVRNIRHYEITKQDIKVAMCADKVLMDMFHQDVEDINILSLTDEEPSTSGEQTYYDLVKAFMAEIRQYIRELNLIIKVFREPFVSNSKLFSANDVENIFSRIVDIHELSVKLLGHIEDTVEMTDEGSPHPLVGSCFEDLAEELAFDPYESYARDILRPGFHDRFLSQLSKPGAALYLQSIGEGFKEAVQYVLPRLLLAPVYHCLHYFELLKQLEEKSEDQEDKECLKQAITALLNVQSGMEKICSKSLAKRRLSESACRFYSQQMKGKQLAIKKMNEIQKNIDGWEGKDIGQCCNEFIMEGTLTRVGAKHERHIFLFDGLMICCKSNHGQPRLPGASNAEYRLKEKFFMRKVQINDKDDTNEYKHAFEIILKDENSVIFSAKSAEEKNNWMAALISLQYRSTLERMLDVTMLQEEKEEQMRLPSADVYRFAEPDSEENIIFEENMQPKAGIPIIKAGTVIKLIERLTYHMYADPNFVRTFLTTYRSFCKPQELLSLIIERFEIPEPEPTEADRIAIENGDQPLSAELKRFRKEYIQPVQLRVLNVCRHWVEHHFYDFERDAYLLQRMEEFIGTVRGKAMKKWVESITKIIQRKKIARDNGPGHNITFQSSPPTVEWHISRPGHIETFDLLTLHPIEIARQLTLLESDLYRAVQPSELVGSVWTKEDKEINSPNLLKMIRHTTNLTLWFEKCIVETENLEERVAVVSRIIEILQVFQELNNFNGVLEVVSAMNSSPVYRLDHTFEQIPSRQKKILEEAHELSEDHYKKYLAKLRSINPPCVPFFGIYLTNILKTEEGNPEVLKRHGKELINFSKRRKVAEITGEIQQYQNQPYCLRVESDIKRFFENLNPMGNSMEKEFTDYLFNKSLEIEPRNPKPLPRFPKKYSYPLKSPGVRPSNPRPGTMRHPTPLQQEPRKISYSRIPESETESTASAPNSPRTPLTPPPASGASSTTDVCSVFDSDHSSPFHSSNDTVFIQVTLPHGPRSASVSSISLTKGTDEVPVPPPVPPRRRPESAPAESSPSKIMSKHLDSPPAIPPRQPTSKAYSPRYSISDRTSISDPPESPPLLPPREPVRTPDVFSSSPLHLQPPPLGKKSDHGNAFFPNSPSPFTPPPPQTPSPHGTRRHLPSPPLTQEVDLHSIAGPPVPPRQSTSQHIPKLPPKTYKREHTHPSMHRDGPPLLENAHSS

[2] = molecular target: T2, Son of sevenless homolog 1 (Homo sapiens, UniProt Q07889); experiment: Inhibition of SOS1 (unknown origin)
T2 sequence (Q07889 whole entry): T1 sequence (whole entry)

[3] = molecular target: Epidermal growth factor receptor (Homo sapiens) (UniProt P00533); experiment: Inhibition of wild type EGFR (unknown origin) at 5000 nM
Sequence of Epidermal growth factor receptor (Homo sapiens) (P00533 whole entry): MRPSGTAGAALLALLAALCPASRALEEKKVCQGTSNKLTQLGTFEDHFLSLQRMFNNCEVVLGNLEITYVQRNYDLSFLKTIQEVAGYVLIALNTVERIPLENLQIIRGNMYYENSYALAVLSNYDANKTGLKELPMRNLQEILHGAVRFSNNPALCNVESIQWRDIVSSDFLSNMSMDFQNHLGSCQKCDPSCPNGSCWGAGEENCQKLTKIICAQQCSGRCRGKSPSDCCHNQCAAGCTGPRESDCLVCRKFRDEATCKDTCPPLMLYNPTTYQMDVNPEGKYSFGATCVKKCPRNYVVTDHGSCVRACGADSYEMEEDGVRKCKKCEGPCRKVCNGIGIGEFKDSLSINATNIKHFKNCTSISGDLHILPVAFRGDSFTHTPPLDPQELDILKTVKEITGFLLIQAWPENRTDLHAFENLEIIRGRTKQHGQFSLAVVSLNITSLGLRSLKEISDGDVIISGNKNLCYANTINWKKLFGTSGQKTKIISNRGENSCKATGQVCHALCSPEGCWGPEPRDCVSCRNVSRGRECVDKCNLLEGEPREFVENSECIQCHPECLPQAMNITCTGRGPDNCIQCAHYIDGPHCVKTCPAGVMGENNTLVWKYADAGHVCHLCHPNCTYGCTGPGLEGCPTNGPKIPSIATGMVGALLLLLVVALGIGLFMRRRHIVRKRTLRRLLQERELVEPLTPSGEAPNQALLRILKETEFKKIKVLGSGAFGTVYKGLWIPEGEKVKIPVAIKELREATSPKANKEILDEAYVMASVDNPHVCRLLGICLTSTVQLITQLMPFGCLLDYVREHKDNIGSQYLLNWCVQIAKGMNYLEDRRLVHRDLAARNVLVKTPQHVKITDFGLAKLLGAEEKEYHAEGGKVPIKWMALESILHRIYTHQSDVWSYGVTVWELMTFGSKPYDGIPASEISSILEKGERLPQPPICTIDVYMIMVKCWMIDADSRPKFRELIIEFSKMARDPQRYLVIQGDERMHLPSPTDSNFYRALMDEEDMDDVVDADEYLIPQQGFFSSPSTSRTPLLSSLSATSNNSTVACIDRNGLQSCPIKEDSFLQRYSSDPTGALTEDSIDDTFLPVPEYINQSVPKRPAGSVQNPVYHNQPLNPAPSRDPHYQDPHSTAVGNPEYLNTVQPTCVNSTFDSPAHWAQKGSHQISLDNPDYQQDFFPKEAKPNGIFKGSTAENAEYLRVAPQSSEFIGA

NCI-H838 = experiment: Antiproliferative activity against human NCI-H838 cells assessed as inhibition of cell proliferation; type: functional, cell-based

Structure (SMILES)	inhibition [1] [%]	IC50 (K562) [nM]	IC50 [2] [nM]	inhibition [3] [%]	IC50 (NCI-H838) [µM]
CNCc1ccccc1-c1csc(C(C)Nc2nc(C)nc3cc4c(cc23)OCCO4)c1 (racemic)	81.4	3490	27		
COc1cc2ncnc(NC(C)c3cc(-c4ccccc4CNCCO)cs3)c2cc1OC (racemic)	97.5	4050	18		
Cc1nc(NC(C)c2cc(-c3ccccc3CNCCO)cs2)c2cc3c(cc2n1)OCCO3 (racemic)	85.1	2480	45		
CNCc1ccccc1-c1csc(C(C)Nc2ncnc3cc(OC)c(OC)cc23)c1 (racemic)	99	2210	20	38.1	> 25
CNCc1ccccc1-c1csc(C(C)Nc2ncnc3cc4c(cc23)OCCO4)c1 (racemic)	78.5	2870	97	22.2	> 25
COc1cc2ncnc(NC(C)c3ccc(-c4ccccc4CNCCO)s3)c2cc1OC (racemic)	99.1	890	8.5	20.7	> 25
CNCc1ccccc1-c1ccc(C(C)Nc2nc(C)nc3cc4c(cc23)OCCO4)s1 (racemic)	77.3				
Cc1nc(NC(C)c2ccc(-c3ccccc3CNCCO)s2)c2cc3c(cc2n1)OCCO3 (racemic)	89.1				
CNCc1ccccc1-c1csc([C@@H](C)Nc2nc(C)nc3cc(OC)c(OC)cc23)c1 [BAY-293]		230			

Second part, led by results:

inhibition [1] [%]	Structure (SMILES)	IC50 (K562) [nM]	IC50 [2] [nM]	inhibition [3] [%]	IC50 (NCI-H838) [µM]
80.2	CC(Nc1ncnc2cc3c(cc12)OCCO3)c1cc(-c2ccccc2CNCCO)cs1 (racemic)				
79.4	CC(Nc1ncnc2cc3c(cc12)OCCO3)c1ccc(-c2ccccc2CNCCO)s1 (racemic)				
98.7	CNCc1ccccc1-c1ccc(C(C)Nc2ncnc3cc(OC)c(OC)cc23)s1 (racemic)				
75.9	CNCc1ccccc1-c1ccc(C(C)Nc2ncnc3cc4c(cc23)OCCO4)s1 (racemic)				
33.7	COc1cc2ncnc(NC(C)c3cc(-c4ccccc4C(N)=O)cs3)c2cc1OC (racemic)				
61	COc1cc2ncnc(NC(C)c3cc(-c4ccccc4N)cs3)c2cc1OC (racemic)				
65.7	COc1cc2ncnc(NC(C)c3cc(-c4ccccc4O)cs3)c2cc1OC (racemic)				
38.7	COc1cc2ncnc(NC(C)c3ccc(-c4ccccc4C(N)=O)s3)c2cc1OC (racemic)				
75.2	COc1cc2ncnc(NC(C)c3ccc(-c4ccccc4N)s3)c2cc1OC (racemic)				
43.9	COc1cc2ncnc(NC(C)c3ccc(-c4ccccc4O)s3)c2cc1OC (racemic)				
